From patent publication US11311609B2, “Regulating chimeric antigen receptors” (DANA-FARBER CANCER INSTITUTE, INC., priority 2017, dated 2022) come the findings set out here.

For experiment [1], the system named is KRAS signaling (pMEK and pAKT). Briefly: Immunoblot of downstream surrogates of KRAS signaling in NIH3T3 cells expressing FKBP*-KRASG12V. It counts as cell-based. To be noted: NIH3T3 cells, N-terminal dTAG-KRAS; 500 nM, indicated time. The protocol: FIG. 19 is an immunoblot of NIH3T3 cells expressing KRASG12V allele fused to FKBP* in the N-terminus or C-terminus. Cells were treated with 500 nM dFKBP7 for the indicated time. Cells were harvested and immunoblotted to measure degradation of FKBP*-KRASG12V and downstream surrogates of KRAS signaling (e.g. pMEK and pAKT).
FIG. 20 is an immunoblot of NIH3T3 cells expressing FKBP* fused to the N-terminus of KRASG12V treated with 1 uM of the indicated dFKBP heterobifunctional compounds for 24 hours. Cells were harvested and immunoblotted to measure degradation of FKBP*-KRASG12V and downstream surrogates of KRAS signaling (e.g. pMEK and pAKT).
FIG. 21 is an immunoblot of NIH3T3 cells expressing FKBP* fused to the N-terminus of KRASG12V treated with the indicated concentrations of dFKBP13 for 24 hours. Cells were harvested and immunoblotted to measure degradation of FKBP*-KRASG12V and downstream surrogates of KRAS signaling (e.g. pMEK and pAKT).
FIG. 22 is an immunoblot of NIH3T3 cells expressing FKBP* fused to the N-terminus of KRASG12V treated with 1 uM dFKBP13 for the indicated time. Cells were harvested and immunoblotted to measure degradation of FKBP*-KRASG12V and downstream surrogates of KRAS signaling (e.g. pMEK and pAKT).
Cells were treated with 500 nM dFKBP7 for the indicated time. […]

Experiment [2] deals with proteins fused to mutant FKBP* with an HA tag. Nature of the experiment: Immunoblot of dTAG fusion proteins in MV4;11 leukemia cells. It counts as cell-based. The note with it: indicated concentrations, 16 hours. The protocol:
FIG. 18A and FIG. 18B are immunoblots of cells treated with heterobifunctional compounds described in the present invention. Immunoblots of MV4; 11 leukemia cells expressing indicated proteins fused to mutant FKBP* with an HA tag. Cells were treated for 16 hours with indicated concentrations of FKBP* selective heterobifunctional compounds, dFKBP7 or dFKBP13 and abundance of fusion proteins measured by western immunoblot analysis. Additional experimental details are given in Example 15.
To test the general utility of the dTAG technology across several protein types, the indicated proteins fused to the dTAG in MV4; 11 leukemia cells were expressed. Upon treatment with the indicated dFKBP bifunctional molecules (dFKBP7 and dFKBP13), targeted protein degradation was observed as measured by western blot.

Regarding `CC[C@H](C(=O)N1CCCC[C@H]1C(=O)O[C@H](CCc1ccc(OC)c(OC)c1)c1cccc(OCC(=O)NCCCOCCOCCOCCCNC(=O)COc2cccc3c2C(=O)N(C2CCC(=O)NC2=O)C3=O)c1)c1cc(OC)c(OC)c(OC)c1` (some centres unmarked) [dFKBP7], the p-AKT signal entry in experiment [1] was “downstream decrease in p-AKT signal”. The “Degradation of proteins fused to dTAG” value in experiment [2] is recorded as “degradation was observed with nanomolar concentrations”.
